Assay results reported in US7696245B2, “Fluorescent probe for zinc” (Sekisui Medical Co., Ltd., priority 2003, dated 2010).

How the values were obtained:
[1] = Rate constant of complex formation with zinc ions (stopped-flow); format: physicochemical; conditions: 1 μM compound, 50 μM zinc ions, 100 mM HEPES buffer (pH 7.4), 25° C.
Protocol: The rate constant of the formation of a complex between zinc ions and each of Compounds 8, 13, 17, and 22 were investigated. Changes with time of fluorescence intensity were measured in a stopped-flow manner after the compound was mixed in 100 mM HEPES buffer (pH 7.4) at 25° C. to adjust the final concentration of the compound to 1 μM and that of zinc ions to 50 μM. The rate constant of complex formation was calculated by using the graph to give 1.6×10^6 M^−1s^−1 for Compound 8, 1.4×10^6 M^−1s^−1 for Compound 13, 7.8×10^4 M^−1s^−1 for Compound 17, and 1.3×10^6 M^−1s^−1 for Compound 22. […] Therefore, it is understood that zinc ions can be detected in a very short period of time, and rapid changes in the concentration of zinc ions can also be detected by using these compounds.

[2] = system: CHO cells; assay: Fluorescence intensity when zinc ions were intracellularly introduced into CHO cells; format: cell-based
Protocol: Changes in fluorescence intensity were investigated when zinc ions in various concentrations were intracellularly introduced by using CHO cells. […] After the cells were washed with PBS(−) 3 times, the reagent was added as shown in the following Table 1, and changes in fluorescence intensity were measured.

[3] = read-out: Kd value for zinc ions; cited from earlier work

| SMILES | rate constant of complex formation [1] [M⁻¹ s⁻¹] | further results |
| --- | --- | --- |
| Cc1cccc(CN(CCNc2ccc(C(=O)O)c(-c3c4ccc(=O)cc-4oc4cc(O)ccc34)c2)Cc2ccccn2)n1 [Compound 22] | 1.3e+06 |  |
| O=C(O)c1ccc(NCCNCc2ccccn2)cc1-c1c2ccc(=O)cc-2oc2cc(O)ccc12 [Compound 8] | 1.6e+06 |  |
| CC(=O)Oc1ccc2c(c1)Oc1cc(OC(C)=O)ccc1C21OC(=O)c2ccc(NCCN(CCc3ccccn3)Cc3ccccn3)cc21 [Compound 28] |  | change of fluorescence intensity of dyed cells with elevation of zinc ions introduced ([2]; CHO cells, 100 μM pyrithione, 0.3-300 μM ZnSO4): increased stepwise |
| CC(=O)Oc1ccc2c(c1)Oc1cc(OC(C)=O)ccc1C21OC(=O)c2ccc(NCCN(Cc3ccccn3)Cc3ccccn3)cc21 [ZnAF-2DA, reference compound] |  | Kd [3]: 2.7 nM; zinc ion concentration at which fluorescence intensity reached the plateau ([2]; CHO cells dyed with 10 μM probe, 100 μM pyrithione plus ZnSO4): 3 µM |
| O=C(O)c1ccc(NCCN(CCc2ccccn2)Cc2ccccn2)cc1-c1c2ccc(=O)cc-2oc2cc(O)ccc12 [Compound 13] | 1.4e+06 |  |
| O=C(O)c1ccc(NCCN(CCc2ccccn2)CCc2ccccn2)cc1-c1c2ccc(=O)cc-2oc2cc(O)ccc12 [Compound 17] | 78000 |  |
